Assay results taken from patent publication US20230072683A1, “PYRIDO-PYRIMIDIN DERIVATIVES AND PHARMACEUTICAL COMPOSITION, FOR USE IN PREVENTING OR TREATING PI3 KINASE RELATED DISEASES, COMPRISING SAME AS ACTIVE INGREDIENT” (BORYUNG PHARMACEUTICAL CO., LTD, priority 2019, published 2023).

What was measured:
[1] = molecular target: DNA-PK(h) (Homo sapiens, UniProt P78527); test: Evaluation of inhibitory activity against DNA-PK (HTRF kinase assay, GST-cMyc-p53 substrate); assay type: biochemical; details: for inhibition at 0.01 µM: compound concentration 0.01 μM, read-out: EXP_VALUE(% Inhibition) DNA-PK(h) 0.01 μM; for inhibition at 0.1 µM: compound concentration 0.1 μM, read-out: EXP_VALUE(% Inhibition) DNA-PK(h) 0.1 μM
Experimental: <Experimental Example 2> Evaluation of Inhibitory Activity Properties Against DNA-PK
The following experiments were performed to verify the inhibitory activity against DNA-PK with regard to each of the compounds of Examples 1 to 441 according to the present invention.
DNA-PK(h) was subjected to an isothermal treatment in an assay buffer comprising […] GST-cMyc-p53 and Mg/ATP (at a concentration as required). The reaction was initiated by the addition of a Mg/ATP mixture, and after incubation for 30 minutes at room temperature, a stop solution comprising EDTA was added to stop the reaction. A detection buffer comprising d2-labelled anti-GST monoclonal antibody and Europium-labelled anti-phospho Ser15 antibody for phosphorylated p53 was added. A plate was read in a time-resolved fluorescence mode and a homogeneous time-resolved fluorescence (HTRF) signal was determined according to HTRF=10000×(Em 665 nm/Em 620 nm).

[2] = molecular target: PI3K-δ (PI3K(p1108/p857) (h)) (Homo sapiens, UniProt O00329); test: Evaluation of inhibitory activity against PI3K-δ (HTRF kinase assay); assay type: biochemical; details: for inhibition at 0.01 µM: compound concentration 0.01 μM, read-out: EXP_VALUE(% Inhibition) PI3K-δ 0.01 μM; for inhibition at 0.1 µM: compound concentration 0.1 μM, read-out: EXP_VALUE(% Inhibition) PI3K-δ 0.1 μM
Sequence of PI3K-δ (PI3K(p1108/p857) (h)) (O00329 whole entry): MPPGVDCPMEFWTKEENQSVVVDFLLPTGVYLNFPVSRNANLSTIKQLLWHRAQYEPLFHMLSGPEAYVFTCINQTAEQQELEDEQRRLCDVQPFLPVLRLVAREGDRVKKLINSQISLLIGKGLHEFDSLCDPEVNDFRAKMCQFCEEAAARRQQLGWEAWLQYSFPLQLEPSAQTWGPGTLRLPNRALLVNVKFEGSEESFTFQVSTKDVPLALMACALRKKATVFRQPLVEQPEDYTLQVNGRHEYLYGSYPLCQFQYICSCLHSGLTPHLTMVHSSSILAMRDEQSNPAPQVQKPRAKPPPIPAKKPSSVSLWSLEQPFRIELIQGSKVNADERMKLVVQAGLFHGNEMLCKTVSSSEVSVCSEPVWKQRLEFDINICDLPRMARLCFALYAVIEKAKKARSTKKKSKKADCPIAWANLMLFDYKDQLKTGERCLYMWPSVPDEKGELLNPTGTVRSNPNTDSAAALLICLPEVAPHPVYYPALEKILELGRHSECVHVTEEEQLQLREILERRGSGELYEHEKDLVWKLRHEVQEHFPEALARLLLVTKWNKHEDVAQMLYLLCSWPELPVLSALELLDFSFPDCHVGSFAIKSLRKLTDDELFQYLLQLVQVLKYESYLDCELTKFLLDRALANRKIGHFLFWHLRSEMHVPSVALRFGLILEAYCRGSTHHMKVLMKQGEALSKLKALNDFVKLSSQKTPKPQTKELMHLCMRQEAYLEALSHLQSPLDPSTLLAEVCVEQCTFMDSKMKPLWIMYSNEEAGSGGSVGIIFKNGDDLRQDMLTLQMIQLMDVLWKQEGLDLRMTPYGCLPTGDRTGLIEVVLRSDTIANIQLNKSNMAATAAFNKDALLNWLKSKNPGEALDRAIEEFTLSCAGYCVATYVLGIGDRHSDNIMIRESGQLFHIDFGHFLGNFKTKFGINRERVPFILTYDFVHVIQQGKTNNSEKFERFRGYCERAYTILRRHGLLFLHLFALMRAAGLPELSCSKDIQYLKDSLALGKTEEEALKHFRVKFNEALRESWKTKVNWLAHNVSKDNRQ
Sequence of PI3K-δ (PI3K(p1108/p857) (h)) (P27986 whole entry partner): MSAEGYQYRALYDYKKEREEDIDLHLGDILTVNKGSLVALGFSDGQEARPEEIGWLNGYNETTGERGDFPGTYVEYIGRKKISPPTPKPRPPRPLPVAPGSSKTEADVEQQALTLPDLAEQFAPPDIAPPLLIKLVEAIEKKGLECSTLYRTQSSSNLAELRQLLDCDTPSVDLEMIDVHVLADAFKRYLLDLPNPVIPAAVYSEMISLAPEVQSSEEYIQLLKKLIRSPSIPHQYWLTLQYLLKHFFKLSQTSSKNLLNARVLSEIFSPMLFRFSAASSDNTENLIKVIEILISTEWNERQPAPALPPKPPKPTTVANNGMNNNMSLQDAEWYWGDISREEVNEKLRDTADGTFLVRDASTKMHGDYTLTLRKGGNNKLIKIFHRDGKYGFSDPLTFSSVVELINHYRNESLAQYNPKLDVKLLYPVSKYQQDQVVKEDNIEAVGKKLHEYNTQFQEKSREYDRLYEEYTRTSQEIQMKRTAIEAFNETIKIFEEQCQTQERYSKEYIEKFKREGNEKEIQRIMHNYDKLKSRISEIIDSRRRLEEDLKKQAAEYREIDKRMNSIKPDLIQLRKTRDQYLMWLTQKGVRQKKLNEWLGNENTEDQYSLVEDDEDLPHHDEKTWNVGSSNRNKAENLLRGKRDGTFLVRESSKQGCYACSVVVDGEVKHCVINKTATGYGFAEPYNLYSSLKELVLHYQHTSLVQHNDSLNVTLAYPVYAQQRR
Experimental: <Experimental Example 1> Evaluation of Inhibitory Activity Properties Against PI3K-δ
The following experiments were performed to verify the inhibitory activity against PI3K-δ with regard to each of the compounds of Examples 1 to 441 according to the present invention.
PI3K(p1108/p857) (h) was incubated in assay buffer comprising 10 μM phosphatidylinositol-4,5-bisphosphate and Mg/ATP (at a concentration as required). The reaction was initiated by the addition of a Mg/ATP mixture, and after incubation for 30 minutes at room temperature, a stop solution comprising EDTA and phosphatidylinositol-3,4,5-triphosphate was added to stop the reaction and carry out biotinylation.
A detection buffer comprising Eu (europium)-labelled anti-GST monoclonal antibody, GST-tagged GRP1 PH domain and streptavidin-allophycocyanin was added. A plate was read in a time-resolved fluorescence mode and a homogeneous time-resolved fluorescence (HTRF) signal was determined according to HTRF=10000×(Em 665 nm/Em 620 nm).

| SMILES | inhibition at 0.01 µM [1] [%] | inhibition at 0.01 µM [2] [%] | inhibition at 0.1 µM [1] [%] | inhibition at 0.1 µM [2] [%] |
| --- | --- | --- | --- | --- |
| CON=C(C)c1cccc2c(Cl)c([C@H](C)Nc3ncnc4[nH]ccc(=O)c34)n(-c3ccccc3)c(=O)c12 (stereo in doubt) [Example 270, (S,Z)-4-((1-(4-chloro-8-(1-(methoxyimino)ethyl)-1-oxo-2-phenyl-1,2-dihydroisoquinolin-3-yl)ethyl)amino)pyrido[2,3-d]pyrimidin-5(8H)-one] | 60 | 63 | – | – |
| C[C@H](Nc1ncnc2[nH]ccc(=O)c12)c1c(Br)c2cccc(Cl)c2c(=O)n1-c1ccccc1 [Example 1, (S)-4-((1-(4-bromo-8-chloro-1-oxo-2-phenyl-1,2-dihydroisoquinolin-3-yl)ethyl)amino)pyrido[2,3-d]pyrimidin-5(8H)-one] | 52 | 105 | 91 | 104 |
| C[C@H](Nc1ncnc2[nH]ccc(=O)c12)c1c(Cl)c2cccc(B3OC(C)(C)C(C)(C)O3)c2c(=O)n1-c1ccccc1 [Example 2, (S)-4-((1-(4-chloro-1-oxo-2-phenyl-8-(4,4,5,5-tetramethyl-1,3,2-dioxaborolan-2-yl)-1,2-dihydroisoquinolin-3-yl)ethyl)amino)pyrido[2,3-d]pyrimidin-5(8H)-one] | 56 | 42 | 89 | 94 |
| C[C@H](Nc1ncnc2[nH]ccc(=O)c12)c1c(Cl)c2cccc(-c3ccc(-n4cccc4)nc3)c2c(=O)n1-c1ccccc1 [Example 3, (S)-4-((1-(8-(6-(1H-pyrrol-1-yl)pyridin-3-yl)-4-chloro-1-oxo-2-phenyl-1,2-dihydroisoquinolin-3-yl)ethyl)amino)pyrido[2,3-d]pyrimidin-5(8H)-one] | 44 | 69 | – | – |
| C[C@H](Nc1ncnc2[nH]ccc(=O)c12)c1c(Cl)c2cccc(-c3cccnc3)c2c(=O)n1-c1ccccc1 [Example 4, (S)-4-((1-(4-chloro-1-oxo-2-phenyl-8-(pyridin-3-yl)-1,2-dihydroisoquinolin-3-yl)ethyl)amino)pyrido[2,3-d]pyrimidin-5(8H)-one] | 53 | 101 | 99 | 109 |
| C[C@H](Nc1ncnc2[nH]ccc(=O)c12)c1c(Cl)c2cccc(-c3cnn(C)c3)c2c(=O)n1-c1ccccc1 [Example 5, (S)-4-((1-(4-chloro-8-(1-methyl-1H-pyrazol-4-yl)-1-oxo-2-phenyl-1,2-dihydroisoquinolin-3-yl)ethyl)amino)pyrido[2,3-d]pyrimidin-5(8H)-one] | 69 | 106 | 100 | 115 |
| C[C@H](Nc1ncnc2[nH]ccc(=O)c12)c1c(Cl)c2cccc(-c3cc4ccccc4o3)c2c(=O)n1-c1ccccc1 [Example 6, (S)-4-((1-(8-(benzofuran-2-yl)-4-chloro-1-oxo-2-phenyl-1,2-dihydroisoquinolin-3-yl)ethyl)amino)pyrido[2,3-d]pyrimidin-5(8H)-one] | 25 | 74 | 74 | 95 |
| C[C@H](Nc1ncnc2[nH]ccc(=O)c12)c1c(Cl)c2cccc(N3CCc4ccccc4C3)c2c(=O)n1-c1ccccc1 [Example 7, (S)-4′-chloro-3′-(1-((5-oxo-5,8-dihydropyrido[2,3-d]pyrimidin-4-yl)amino)ethyl)-2′-phenyl-3,4-dihydro-1H-(2,8′-biisoquinolin)-1′(2′H)-one] | 26 | 77 | 62 | 108 |
| C[C@H](Nc1ncnc2[nH]ccc(=O)c12)c1c(Cl)c2cccc(-c3ccc(C(F)(F)F)cc3)c2c(=O)n1-c1ccccc1 [Example 68, (S)-4-((1-(4-chloro-1-oxo-2-phenyl-8-(4-(trifluoromethyl)phenyl)-1,2-dihydroisoquinolin-3-yl)ethyl)amino)pyrido[2,3-d]pyrimidin-5(8H)-one] | 48 | – | 73 | – |
